The source made the active and inactive calls. The calls are words filed in the database; no cut-off is given here.
Experiments:
[1] = Toxicity in ip dosed rat; type: organism-based; details: in vivo
Rattus norvegicus [2] = assay: Induction of stereotyped gnawling behavior in rat assessed as time duration at 30 umol/kg, ip relative to control; type: functional
Rattus norvegicus [3] = assay: Induction of stereotyped gnawling behavior in rat assessed as time duration at 100 umol/kg, ip relative to control; type: functional
Striatum [4] = assay: Induction of cAMP production in rat corpus striatum at 10 to 100 uM in presence of rat liver; type: functional, tissue-based
Rattus norvegicus [5] = assay: Induction of stereotyped gnawling behavior in ip dosed rat assessed as time duration; type: functional, organism-based
Rattus norvegicus [6] = assay: Induction of turning behavior in rat at 50 to 200 umol/kg, ip; type: functional, organism-based
Brain = assay: Drug uptake in ip dosed mouse brain; type: ADME, organism-based; details: in vivo
Rattus norvegicus [7] = assay: Induction of stereotyped gnawling behavior in rat assessed as time duration at 200 umol/kg, ip relative to control; type: functional
Rattus norvegicus [8] = assay: Induction of stereotyped gnawling behavior in rat assessed as time duration of behavior administered by gastric tube; type: functional, organism-based
Liver = assay: Prodrug conversion in rat liver at 0.4 mM after 60 mins; type: ADME, tissue-based; details: 1 h, 400 µM
Striatum [9] = assay: Induction of cAMP production in rat corpus striatum at 10 to 100 uM; type: functional, tissue-based
Rattus norvegicus [10] = assay: Induction of stereotyped gnawling behavior in ip dosed rat assessed as latency to peak score of stereotyped behavior; type: functional

Row | SMILES | MTD [1] [mg/kg] | Time (Rattus norvegicus [2]) [h] | Time (Rattus norvegicus [3]) [h] | Activity (Striatum [4]) | Activity (Rattus norvegicus [5]) | Activity (Rattus norvegicus [6]) | Drug uptake (Brain) | Time (Rattus norvegicus [7]) [h] | Activity (Rattus norvegicus [8]) | Drug metabolism (Liver) [%] | Activity (Striatum [9]) | Time (Rattus norvegicus [10]) [min]
1 | CC(C)C(=O)Oc1ccc2c(c1OC(=O)C(C)C)-c1cccc3c1[C@@H](C2)N(C)CC3.Cl | < 300 | 2.5 | 3.3 | Active | Dose-dependent effect | Active | Active | 4.9 | inactive | 55 | inactive | –
2 | CN1CCc2cccc3c2[C@H]1Cc1ccc(OC(=O)C(C)(C)C)c(OC(=O)C(C)(C)C)c1-3.Cl | < 300 | 3.1 | 5.1 | – | Dose-dependent effect | Active | – | 7.8 | inactive | – | inactive | –
3 | CN1CCc2cccc3c2[C@H]1Cc1ccc(O)c(O)c1-3.CN1CCc2cccc3c2[C@H]1Cc1ccc(O)c(O)c1-3.Cl.Cl.O [APOMORPHINE HYDROCHLORIDE] | < 300 | 1.6 | 1.9 | – | – | Active | – | 2.6 | inactive | – | – | 26
4 | CC(=O)Oc1ccc2c(c1OC(C)=O)-c1cccc3c1[C@@H](C2)N(C)CC3 | < 300 | 2.1 | 2.3 | – | Active | Active | – | 2.7 | inactive | – | inactive | –
5 | CCC(=O)Oc1ccc2c(c1OC(=O)CC)-c1cccc3c1[C@@H](C2)N(C)CC3.Cl | < 300 | 1.6 | 1.9 | – | inactive | Active | – | 2.9 | inactive | – | inactive | 41
6 | CN1CCc2cccc3c2[C@H]1Cc1ccc(OC(=O)c2ccccc2)c(OC(=O)c2ccccc2)c1-3 | < 300 | 3.8 | 6.3 | – | Dose-dependent effect | Active | Active | 10.8 | inactive | 9 | inactive | 83

— ChEMBL document CHEMBL3272152, “Diester derivatives as apomorphine prodrugs” (J Med Chem, 1976)
